Molecular target: T1, SARS-CoV-2 nsp14/nsp10 complex (Severe acute respiratory syndrome coronavirus 2, UniProt P0DTD1)
T1 construct: gene rep; full-length mature nsp14 and nsp10 cut from replicase polyprotein 1ab; co-expressed from one pRSF-Duet-1 plasmid in E. coli BL21Gold (DE3), C-terminal 6xHis; with Non-structural protein 10
Assay: biochemical
Type: binding

`C[S+](CC[C@H](N)C(=O)O)C[C@H]1O[C@@H](n2cnc3c(N)ncnc32)[C@H](O)[C@@H]1O` (stereo partly shown) [SAM] and `Nc1ncnc2c1ncn2[C@@H]1O[C@H](CSCCCCNCc2cccc(-c3ccc(Cl)cc3)c2)[C@@H](O)[C@H]1O` [SGC8158] are the same in Kd: roughly 6 µM for the first, roughly 6 µM for the second.

Compared with `Nc1nc2c(ncn2[C@@H]2O[C@H](COP(=O)(O)OP(=O)(O)OP(=O)(O)OC[C@H]3O[C@@H](n4cnc5c(N)ncnc54)[C@H](O)[C@@H]3O)[C@@H](O)[C@H]2O)c(=O)[nH]1` [GpppA RNA cap analog], `CC(C)N(CCCNC(=O)Nc1ccc(C(C)(C)C)cc1)C[C@H]1O[C@@H](n2cc(Br)c3c(N)ncnc32)[C@H](O)[C@@H]1O` [SGC0946] is 2.5-fold lower in Kd: 20 µM for the first, roughly 8 µM for the second. The second binds more tightly here.
